Laboratory results from patent US20250090576A1, “METHODS FOR TREATING NONTUBERCULOUS MYCOBACTERIA DISEASES” (Microbion Corporation, priority 2022, published 2025).
≈ marks a conversion by molar mass, not a printed value.

What was measured:
Type in all cases: cell-based
M. abscessus MABS1 = assay: MIC (Table 8); settings: Mycobacteroides abscessus
[1] = system: M. abscessus MABS7 biofilm; assay: MBEC assay (minimum biofilm eradication concentration); settings: 18 h challenge
Text: (§1) In this study the MBEC assay was followed as described in the Innovotech Procedural Manual, version 2.1 with minor modifications to assess the antibiofilm activity of the antimicrobial compounds under investigation. The MBEC value refers to the Minimum Biofilm Eradication Concentration of each antimicrobial for each strain. The MBEC value is defined as the minimum antibiotic concentration where the optical density (OD) value at recovery is less than 10% of the control OD value and there is no growth observed with visual examination of the wells.
(§2) Step 1: Inoculation. For resuscitation, all strains were streaked on TSA plates, except for the mycobacteria which were streaked on 7H10 media, from the frozen stocks, and grew overnight at 37° C. (Table 6). From the plate, one colony was picked for inoculation in organism specific medium (OSM) and grown in a shaker incubator at 37° C. at 225 RPM until mid-log phase (OD 0.2-0.8). At mid log phase the culture was diluted in OSM medium (Table 6) to an OD of 0.05. 150 μL of it were aliquoted in each corresponding well in a 96-well MBEC plate (inoculation plate). Subsequently, the MBEC plates were incubated static at 37° C. for the appropriate time for each species (Table 7). During incubation, biofilm formed on the pegs.
(§3) Step 2: Challenge. Following incubation, the peg lid with the biofilm was washed twice in PBS and placed on a second 96-well plate with 200 μl of antibiotic dilutions (challenge plate). The challenge plate was then incubated at 37° C. for 18 h to allow exposure of the biofilm to antibiotics.
(§4) Step 3: Recovery. In the final step, the peg lid (with the biofilm after treatment with the antibiotics) was washed again twice in PBS and placed on a third 96-well plate (recovery plate) with 200 μl growth medium in each well to allow growth of any bacterial cells resistant to antibiotics at any concentration. The recovery of resistant cells was assessed by an end-point measurement of the optical density at 600 nm (OD600) for each well with a plate reader (FIG. 4).

[2] = system: M. abscessus MABS4 biofilm; assay: as above; settings: 18 h challenge
Text: as §1, §2, §3, §4

[3] = system: M. abscessus MABS11 biofilm; assay: as above; settings: 18 h challenge
Text: as §1, §2, §3, §4

[4] = system: M. abscessus MABS2 biofilm; assay: as above; settings: 18 h challenge
Text: as §1, §2, §3, §4

[5] = system: M. abscessus MABS9 biofilm; assay: as above; settings: 18 h challenge
Text: as §1, §2, §3, §4

[6] = system: M. abscessus MABS1 biofilm; assay: as above; settings: 18 h challenge
Text: as §1, §2, §3, §4

M. abscessus MABS2 = assay: MIC (Table 8); settings: Mycobacteroides abscessus
M. abscessus MABS9 = assay: MIC (Table 8); settings: Mycobacteroides abscessus
[7] = system: M. abscessus cystic fibrosis patient strain 01715 in THP-1 macrophages; assay: Mycobacterial survival (CFU) in infected THP-1 macrophages; settings: CF patient strain 01715; after 3 days; drugs at MIC
Experimental: (§5) THP-1 macrophages were differentiated with 50 ng/ml PMA for 24 hours, followed by 24 hours in media prior to infection. Differentiated THP-1 macrophages were either infected with M. avium strains or M. abscessus strains for 1 hour with an multiplicity of infection (MOI) of 5 or uninfected. Cells were washed twice, followed by 1 hour of antibiotic treatment with 200 μg/ml of amikacin to remove extracellular bacteria. After the antibiotic step, cells were washed once more and BisEDT (BIZ) or amikacin was added once to selected wells (see in vitro doses below).
(§6) The treatments included: vehicle, amikacin, Soluble BisEDT (S Biz), Insoluble BisEDT (I Biz), and amikacin+BisEDT. The time points for sample preparation were 72 h for M. abscessus strains and 4- and 7-days post infection for M. avium strains. At the indicated timepoints cell media was removed and replaced with 400 ul of 0.1% triton x-100 in H2O for lysis. Wells were pipetted 25 times to disrupt cells then diluted and plated for CFU enumeration.

[8] = system: M. avium strain 104 (MAH 104) in THP-1 macrophages; assay: as above; settings: 4-day and 7-day, drugs at MIC
Experimental: as §5, §6

[9] = system: M. abscessus strain 19977 in THP-1 macrophages; assay: as above; settings: after 3 days, drugs at MIC
Experimental: as §5, §6

[10] = system: M. abscessus cystic fibrosis patient strain 00703 in THP-1 macrophages; assay: as above; settings: CF patient strain 00703; after 3 days; drugs at MIC
Experimental: as §5, §6

[11] = system: M. abscessus biofilm (six clinical isolates); assay: MBEC assay, summary over six clinical isolates; settings: at high concentrations (amikacin, clarithromycin: apart from MABS4)
Text: as §1, §2, §3
Step 3: Recovery. […] The recovery of resistant cells was assessed by an end-point measurement of the optical density at 600 nm (OD600) for each well with a plate reader (FIG. 4).
This is possibly, in part, due to the variable clumping of the cells observed in the biofilm biomass on the pegs. The clumping of the cells also impacted the OD readings. […] For replicate experiments with variable results, the final MBEC values were determined based on the higher MBEC concentration observed among the replicates.

SMILES: NCC[C@H](O)C(=O)N[C@@H]1C[C@H](N)[C@@H](O[C@H]2O[C@H](CN)[C@@H](O)[C@H](O)[C@H]2O)[C@H](O)[C@H]1O[C@H]1O[C@H](CO)[C@@H](O)[C@H](N)[C@H]1O [amikacin]
- MIC (M. abscessus MABS1): 16 µg/mL (≈ 27.3 µM)
- MBEC [1]: >16 µg/mL
- MBEC [2]: 8 µg/mL
- MBEC ([2]; listed as Amikacin): <8 µg/mL
- MBEC [3]: >16 µg/mL
- MBEC [4]: >512 µg/mL
- MBEC [5]: >64 µg/mL
- MBEC [6]: >128 µg/mL
- MIC (M. abscessus MABS2): 32 µg/mL (≈ 54.6 µM)
- MIC (M. abscessus MABS9): 8 µg/mL (≈ 13.7 µM)
- mycobacterial survival (CFU, bacterial load) in THP-1 macrophages, in words [7]: bacteriostatic
- mycobacterial survival (CFU, bacterial load) in THP-1 macrophages, in words [8]: greatly reduced the bacteria load
- mycobacterial survival (CFU, bacterial load) in THP-1 macrophages, in words [9]: somewhat reduced CFU counts from initial infection rates, but the difference was not significant
- mycobacterial survival (CFU, bacterial load) in THP-1 macrophages, in words [10]: bacteriostatic
- biofilm susceptibility, in words [11]: resistance
